The values below come from patent publication US10647721B2, “Bicyclic heteroaryl derivatives” (Hoffmann-La Roche Inc., priority 2016, dated 2020).

The test system of the test is γ-secretase. Briefly: Cellular γ-secretase assay (inhibition of Aβ42 secretion, AlphaLisa). Particulars: human neuroglioma H4 cells overexpressing human APP695 Swedish double mutation, 24 hr compound incubation. Type of test: cell-based. The procedure: Cellular γ-Secretase Assay
Human neuroglioma H4 cells overexpressing human APP695 with the Swedish double mutation (K595N/M596L) were plated at 30,000 cells/well/100 μl in 96-well plates in IMDM media containing 10% FCS, 0.2 mg/l Hygromycin B and incubated at 37° C., 5% CO2.
3-4 hr post plating, compounds are a diluted in media and 50 μl is added as 1.5-fold concentrate to achieve the final concentration. Compound incubation is performed for 24 hr. Final doses typically range from 4 μm down to 0.0013 μm in half-log steps resulting in a eight point dose response curve.
Appropriate controls using vehicle only and reference compound were applied to this assay. The final concentration of Me2SO was 0.4%.
After incubation at 37° C., 5% CO2, the supernatant was subjected to quantification of secreted Aβ42 by the means of an AlphaLisa assay kit (Human Amyloid beta 1-42 Kit: Cat # AL203C, Perkin Elmer). 20 μl of the cell culture supernatant was transferred to an assay plate. Then 10 μl of a mixture of the AlphaLisa coupled capture antibody and the biotinylated detection antibody was added and incubated for 3 hours at room temperature while softly shaking the assay plate. After a further addition of 20 μl of the Donor beads the assay plate was incubated for 30 min at room temperature and constant shaking without exposure to direct light. The assay plate was then read on a Paradigm AlphaLisa Reader using the build-in program with excitation at 680 nm and emission at […].
The measured signals were then used to calculate IC50 values for inhibition of Aβ42 secretion by nonlinear regression fit analysis using XLfit 5.3 software (IDBS).

As usually defined, the EC50 is the concentration at which the effect is half-maximal. For `COc1cc(Nc2nc3n(n2)CCCCN3c2ccc(F)c(F)c2)ccc1-n1cnc(C(F)(F)F)c1` [Example 10, 4-(3,4-difluorophenyl)-N-[3-methoxy-4-[4-(trifluoromethyl)imidazol-1-yl]phenyl]-5,6,7,8-tetrahydro-[1,2,4]triazolo[1,5-a][1,3]diazepin-2-amine], the EC50 was found to be 61.9 nM.

Molecule `Cc1ncn(-c2ccc(Nc3nc4n(n3)CCCN4c3ccc(F)c(F)c3)cc2C#N)n1` [Example 30, 5-[[4-(3,4-difluorophenyl)-6,7-dihydro-5H-[1,2,4]triazolo[1,5-a]pyrimidin-2-yl]amino]-2-(3-methyl-1,2,4-triazol-1-yl)benzonitrile] had an EC50 of 25.1 nM. In turn, `COc1cc(Nc2nc3n(n2)CCCN3c2ccc(F)c(F)c2)ccc1-c1cc(C)n[nH]1` [Example 25, 4-(3,4-difluorophenyl)-N-[3-methoxy-4-(3-methyl-1H-pyrazol-5-yl)phenyl]-6,7-dihydro-5H-[1,2,4]triazolo[1,5-a]pyrimidin-2-amine] had an EC50 of 58.5 nM. In turn, `COc1cc(Nc2nc3n(n2)CCCCN3c2ccc(F)c(F)c2)ccc1-n1cnc(C)n1` [Example 8, 4-(3,4-difluorophenyl)-N-[3-methoxy-4-(3-methyl-1,2,4-triazol-1-yl)phenyl]-5,6,7,8-tetrahydro-[1,2,4]triazolo[1,5-a][1,3]diazepin-2-amine] gave an EC50 of 35.8 nM. `Cc1ncn(-c2ccc(Nc3nc4n(n3)CCCN4c3ccc(F)c(F)c3)cc2)n1` [Example 29, 4-(3,4-difluorophenyl)-N-[4-(3-methyl-1,2,4-triazol-1-yl)phenyl]-6,7-dihydro-5H-[1,2,4]triazolo[1,5-a]pyrimidin-2-amine] displayed an EC50 of 56.1 nM. Against the preceding molecule, the EC50 is about 1.6-fold higher.

As for `Fc1ccc(N2CCCn3nc(Nc4ccc(-n5cnc(Cl)c5)cc4)nc32)cc1F` [Example 23, N-[4-(4-chloroimidazol-1-yl)phenyl]-4-(3,4-difluorophenyl)-6,7-dihydro-5H-[1,2,4]triazolo[1,5-a]pyrimidin-2-amine], the midpoint of the response, the EC50, lay at 31.2 nM. This EC50 lies about 1.8-fold lower than the previous one. In the case of `Cc1ncn(-c2ccc(Nc3nc4n(n3)CCCN4c3ccc(F)c(F)c3)cc2OC(F)F)n1` [Example 1, N-[3-(difluoromethoxy)-4-(3-methyl-1,2,4-triazol-1-yl)phenyl]-4-(3,4-difluorophenyl)-6,7-dihydro-5H-[1,2,4]triazolo[1,5-a]pyrimidin-2-amine] it was 16.6 nM.

Molecule `COc1cc(Nc2nc3n(n2)CCCN3c2ccc(F)c(F)c2F)ccc1-n1cnc(Cl)c1` [Example 17, N-[4-(4-chloroimidazol-1-yl)-3-methoxy-phenyl]-4-(2,3,4-trifluorophenyl)-6,7-dihydro-5H-[1,2,4]triazolo[1,5-a]pyrimidin-2-amine] gave an EC50 of 13 nM. `COc1cc(Nc2nc3n(n2)CCN3c2ccc(C(F)(F)F)cc2)ccc1-n1cnc(Cl)c1` [Example 44, N-[4-(4-chloroimidazol-1-yl)-3-methoxy-phenyl]-4-[4-(trifluoromethyl)phenyl]-5,6-dihydroimidazo[1,2-b][1,2,4]triazol-2-amine] had an EC50 of 65.4 nM.

The molecule `Cc1ncnn1-c1ccc(Nc2nc3n(n2)CCCN3c2ccc(F)c(F)c2)cc1F` [Example 13, 4-(3,4-difluorophenyl)-N-[3-fluoro-4-(5-methyl-1,2,4-triazol-1-yl)phenyl]-6,7-dihydro-5H-[1,2,4]triazolo[1,5-a]pyrimidin-2-amine] registered an EC50 of 24.8 nM. In the case of `COc1cc(Nc2nc3n(n2)CCCN3c2ccc(F)cc2)ccc1-n1cnc(Cl)c1` [Example 34, N-[4-(4-chloroimidazol-1-yl)-3-methoxy-phenyl]-4-(4-fluorophenyl)-6,7-dihydro-5H-[1,2,4]triazolo[1,5-a]pyrimidin-2-amine] it was 10 nM.

The molecule `Cc1ncc(-c2ccc(Nc3nc4n(n3)CCCN4c3ccc(F)c(F)c3)cc2)o1` [Example 22, 4-(3,4-difluorophenyl)-N-[4-(2-methyloxazol-5-yl)phenyl]-6,7-dihydro-5H-[1,2,4]triazolo[1,5-a]pyrimidin-2-amine] yielded a concentration for a half-maximal effect (EC50) of 19.8 nM.

`Fc1ccc(N2CCCn3nc(Nc4ccc(-n5cnc(Cl)n5)c(F)c4)nc32)cc1F` [Example 21, N-[4-(3-chloro-1,2,4-triazol-1-yl)-3-fluoro-phenyl]-4-(3,4-difluorophenyl)-6,7-dihydro-5H-[1,2,4]triazolo[1,5-a]pyrimidin-2-amine] showed an EC50 of 102 nM. Under `COc1cc(Nc2nc3n(n2)CCCN3c2ccc(F)c(F)c2)ccc1-n1cnc(Cl)c1` [Example 6, N-[4-(4-chloroimidazol-1-yl)-3-methoxy-phenyl]-4-(3,4-difluorophenyl)-6,7-dihydro-5H-[1,2,4]triazolo[1,5-a]pyrimidin-2-amine] stands 8.3 nM; under `Fc1ccc(N2CCCn3nc(Nc4ccc(-n5cnc(Cl)c5)c(Cl)c4)nc32)cc1F` [Example 28, N-[3-chloro-4-(4-chloroimidazol-1-yl)phenyl]-4-(3,4-difluorophenyl)-6,7-dihydro-5H-[1,2,4]triazolo[1,5-a]pyrimidin-2-amine], 137 nM.

`COc1cc(Nc2nc3n(n2)CCN3c2ccc(F)c(F)c2F)ccc1-n1cnc(Cl)c1` [Example 45, N-[4-(4-chloroimidazol-1-yl)-3-methoxy-phenyl]-4-(2,3,4-trifluorophenyl)-5,6-dihydroimidazo[1,2-b][1,2,4]triazol-2-amine]: a half-maximal response (EC50) required 30 nM. For the molecule `COc1cc(Nc2nc3n(n2)CCCN3c2ccccc2)ccc1-n1cnc(C)n1` [Example 48, N-[3-methoxy-4-(3-methyl-1,2,4-triazol-1-yl)phenyl]-4-phenyl-6,7-dihydro-5H-[1,2,4]triazolo[1,5-a]pyrimidin-2-amine], it took 94.7 nM to reach a half-maximal effect (EC50). Compared with the last molecule, the EC50 is about 3.2-fold higher.

`Cc1ncc(-c2ccc(Nc3nc4n(n3)CCCN4c3ccc(F)c(F)c3)cc2F)o1` [Example 19, 4-(3,4-difluorophenyl)-N-[3-fluoro-4-(2-methyloxazol-5-yl)phenyl]-6,7-dihydro-5H-[1,2,4]triazolo[1,5-a]pyrimidin-2-amine] yielded an EC50 of 20.4 nM. `Cc1ncn(-c2ccc(Nc3nc4n(n3)CCCN4c3ccc(F)cc3)cc2OC(F)F)n1` [Example 37, N-[3-(difluoromethoxy)-4-(3-methyl-1,2,4-triazol-1-yl)phenyl]-4-(4-fluorophenyl)-6,7-dihydro-5H-[1,2,4]triazolo[1,5-a]pyrimidin-2-amine] showed an EC50 of 34.2 nM. Against the preceding molecule, the EC50 is about 1.7-fold higher.

Take `Fc1ccc(N2CCCn3nc(Nc4ccc(-n5cnc(Cl)c5)c(F)c4)nc32)cc1F` [Example 18, N-[4-(4-chloroimidazol-1-yl)-3-fluoro-phenyl]-4-(3,4-difluorophenyl)-6,7-dihydro-5H-[1,2,4]triazolo[1,5-a]pyrimidin-2-amine]: the EC50 turned out to be 22.5 nM. As to `COc1cc(Nc2nc3n(n2)CCCN3c2ccc(F)c(F)c2)ccc1-n1cnc(C(F)(F)F)c1` [Example 3, 4-(3,4-difluorophenyl)-N-[3-methoxy-4-[4-(trifluoromethyl)imidazol-1-yl]phenyl]-6,7-dihydro-5H-[1,2,4]triazolo[1,5-a]pyrimidin-2-amine], it took 37 nM to reach a half-maximal effect (EC50). In the case of `COc1cc(Nc2nc3n(n2)CCCCN3c2ccc(F)c(F)c2)ccc1-c1cnc(C)o1` [Example 7, 4-(3,4-difluorophenyl)-N-[3-methoxy-4-(2-methyloxazol-5-yl)phenyl]-5,6,7,8-tetrahydro-[1,2,4]triazolo[1,5-a][1,3]diazepin-2-amine], the response was half-maximal at 13.2 nM (EC50). `COc1cc(Nc2nc3n(n2)CCN3c2ccc(F)c(F)c2)ccc1-n1cnc(Cl)c1` [Example 46, N-[4-(4-chloroimidazol-1-yl)-3-methoxy-phenyl]-4-(3,4-difluorophenyl)-5,6-dihydroimidazo[1,2-b][1,2,4]triazol-2-amine] yielded a concentration for a half-maximal effect (EC50) of 40.4 nM. In the case of `Cc1ncc(-c2ccc(Nc3nc4n(n3)CCCN4c3ccc(F)c(F)c3)cc2C#N)o1` [Example 27, 5-[[4-(3,4-difluorophenyl)-6,7-dihydro-5H-[1,2,4]triazolo[1,5-a]pyrimidin-2-yl]amino]-2-(2-methyloxazol-5-yl)benzonitrile] it was 20.2 nM. Molecule `COc1cc(Nc2nc3n(n2)CCCN3c2cccc(F)c2)ccc1-n1cnc(C)n1` [Example 31, 4-(3-fluorophenyl)-N-[3-methoxy-4-(3-methyl-1,2,4-triazol-1-yl)phenyl]-6,7-dihydro-5H-[1,2,4]triazolo[1,5-a]pyrimidin-2-amine] showed an EC50 of 30.4 nM. Turning to `N#Cc1cc(Nc2nc3n(n2)CCCN3c2ccc(F)c(F)c2)ccc1-n1cnc(C(F)F)c1` [Example 26, 2[4-(difluoromethyl)imidazol-1-yl]-5-[[4-(3,4-difluorophenyl)-6,7-dihydro-5H-[1,2,4]triazolo[1,5-a]pyrimidin-2-yl]amino]benzonitrile], the EC50 is 23.8 nM. In the case of `COc1cc(Nc2nc3n(n2)CCCN3c2ccc(F)cc2)ccc1-c1cnc(C)o1` [Example 43, 4-(4-fluorophenyl)-N-[3-methoxy-4-(2-methyloxazol-5-yl)phenyl]-6,7-dihydro-5H-[1,2,4]triazolo[1,5-a]pyrimidin-2-amine] it was 12.6 nM. In turn, `COc1cc(Nc2nc3n(n2)CCCN3c2ccc(F)c(F)c2)ccc1-c1cnc(C)o1` [Example 4, 4-(3,4-difluorophenyl)-N-[3-methoxy-4-(2-methyloxazol-5-yl)phenyl]-6,7-dihydro-5H-[1,2,4]triazolo[1,5-a]pyrimidin-2-amine] came in with an EC50 of 14.3 nM.
